Laboratory results as given in ChEMBL document CHEMBL5338815 (J Med Chem, 2023).
Activity calls are given as the source filed them. No cut-off for these calls is given here.

How the values were obtained:
[1] = tested on: PANC-1; experiment: In vivo antitumor activity against human PANC-1 cells xenografted in Balb/c mouse model assessed as reduction in H3K9me2 level in tumor at 2 mg/kg, ip treated for 22 days relative to control; format: functional, organism-based; conditions: time 22.0 day
[2] = target: T1, Histone-lysine N-methyltransferase EHMT1 (Homo sapiens) (UniProt Q9H9B1); experiment: Covalent inhibition of recombinant GLP (unknown origin) assessed as adduct formation intensity by mass spectrometric analysis; conditions: time <= 16.0 hrs, TDE = time-dependent effect
T1 sequence (whole entry): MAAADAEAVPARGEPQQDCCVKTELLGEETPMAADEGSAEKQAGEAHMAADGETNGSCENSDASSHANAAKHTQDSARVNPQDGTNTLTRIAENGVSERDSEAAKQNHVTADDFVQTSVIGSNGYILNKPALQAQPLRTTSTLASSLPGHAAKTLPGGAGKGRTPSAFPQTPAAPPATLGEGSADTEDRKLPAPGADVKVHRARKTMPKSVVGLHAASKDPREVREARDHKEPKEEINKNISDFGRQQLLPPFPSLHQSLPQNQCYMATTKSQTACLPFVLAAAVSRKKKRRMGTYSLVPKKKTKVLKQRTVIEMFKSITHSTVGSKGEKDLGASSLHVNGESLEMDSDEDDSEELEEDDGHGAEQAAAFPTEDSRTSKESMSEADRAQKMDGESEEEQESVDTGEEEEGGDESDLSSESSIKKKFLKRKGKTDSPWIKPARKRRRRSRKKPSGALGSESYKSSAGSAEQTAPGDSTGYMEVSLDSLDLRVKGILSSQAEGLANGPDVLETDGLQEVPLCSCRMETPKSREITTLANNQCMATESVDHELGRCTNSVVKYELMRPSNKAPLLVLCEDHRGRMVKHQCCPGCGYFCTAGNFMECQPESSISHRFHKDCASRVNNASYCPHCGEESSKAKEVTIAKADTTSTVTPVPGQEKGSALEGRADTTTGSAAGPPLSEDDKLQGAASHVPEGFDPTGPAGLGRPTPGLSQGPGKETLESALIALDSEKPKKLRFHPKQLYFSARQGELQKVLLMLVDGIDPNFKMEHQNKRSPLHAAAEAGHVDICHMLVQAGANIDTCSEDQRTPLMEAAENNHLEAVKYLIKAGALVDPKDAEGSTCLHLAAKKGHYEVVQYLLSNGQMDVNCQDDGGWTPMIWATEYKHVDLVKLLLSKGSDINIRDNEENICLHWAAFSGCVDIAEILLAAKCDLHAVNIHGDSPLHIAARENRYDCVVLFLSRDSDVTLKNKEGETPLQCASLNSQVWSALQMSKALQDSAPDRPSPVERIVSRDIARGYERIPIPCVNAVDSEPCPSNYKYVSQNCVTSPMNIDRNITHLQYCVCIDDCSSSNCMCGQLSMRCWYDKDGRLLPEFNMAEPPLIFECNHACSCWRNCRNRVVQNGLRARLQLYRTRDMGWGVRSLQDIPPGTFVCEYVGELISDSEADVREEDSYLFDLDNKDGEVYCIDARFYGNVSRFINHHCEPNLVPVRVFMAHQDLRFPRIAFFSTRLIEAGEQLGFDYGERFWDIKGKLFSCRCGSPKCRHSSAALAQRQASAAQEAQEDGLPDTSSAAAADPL

[3] = target: T2, Histone-lysine N-methyltransferase EHMT2 (Homo sapiens) (UniProt Q96KQ7); experiment: Covalent inhibition of recombinant G9a (unknown origin) assessed as adduct formation intensity by mass spectrometric analysis; conditions: time <= 16.0 hrs, TDE = time-dependent effect
T2 sequence (whole entry): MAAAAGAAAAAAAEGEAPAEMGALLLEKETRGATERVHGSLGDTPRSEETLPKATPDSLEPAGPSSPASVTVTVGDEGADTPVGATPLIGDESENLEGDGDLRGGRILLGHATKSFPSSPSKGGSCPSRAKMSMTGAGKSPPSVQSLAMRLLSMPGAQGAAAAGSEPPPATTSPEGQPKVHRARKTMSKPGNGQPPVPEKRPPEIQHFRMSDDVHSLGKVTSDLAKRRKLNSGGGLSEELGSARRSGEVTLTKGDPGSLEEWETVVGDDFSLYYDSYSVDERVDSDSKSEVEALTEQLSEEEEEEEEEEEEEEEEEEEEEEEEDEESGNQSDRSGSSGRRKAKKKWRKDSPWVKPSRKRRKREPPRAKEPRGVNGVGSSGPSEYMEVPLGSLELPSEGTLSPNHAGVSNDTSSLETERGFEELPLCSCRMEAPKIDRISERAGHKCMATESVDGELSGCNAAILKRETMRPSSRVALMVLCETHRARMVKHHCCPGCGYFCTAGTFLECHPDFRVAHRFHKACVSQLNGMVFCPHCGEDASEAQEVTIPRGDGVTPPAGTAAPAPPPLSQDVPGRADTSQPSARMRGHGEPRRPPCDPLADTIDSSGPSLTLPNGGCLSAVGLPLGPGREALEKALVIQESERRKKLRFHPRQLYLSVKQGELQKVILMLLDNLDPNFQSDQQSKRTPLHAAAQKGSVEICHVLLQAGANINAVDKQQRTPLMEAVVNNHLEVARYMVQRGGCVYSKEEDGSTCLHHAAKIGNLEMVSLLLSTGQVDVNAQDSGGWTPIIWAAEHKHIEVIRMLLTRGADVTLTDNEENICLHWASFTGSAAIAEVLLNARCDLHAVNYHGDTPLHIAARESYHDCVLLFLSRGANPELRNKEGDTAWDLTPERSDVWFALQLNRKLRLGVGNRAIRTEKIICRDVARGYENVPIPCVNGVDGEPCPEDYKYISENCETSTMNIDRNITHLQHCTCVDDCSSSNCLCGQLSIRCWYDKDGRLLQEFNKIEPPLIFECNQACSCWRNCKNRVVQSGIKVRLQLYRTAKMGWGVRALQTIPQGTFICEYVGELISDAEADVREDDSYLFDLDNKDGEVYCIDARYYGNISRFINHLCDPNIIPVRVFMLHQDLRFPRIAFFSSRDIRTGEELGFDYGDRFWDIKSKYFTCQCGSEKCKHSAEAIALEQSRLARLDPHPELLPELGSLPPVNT

[4] = Cmax in ICR mouse at 2 mg/kg, ip measured upto 24 hrs by LC-MS/MS analysis; format: ADME, organism-based; parameters: time < 24 hrs, dose 2 mg/kg, route ip; conditions: in vivo
[5] = MRT in ICR mouse at 2 mg/kg, ip measured upto 24 hrs by LC-MS/MS analysis; format: ADME, organism-based; conditions: in vivo
[6] = tested on: MDA-MB-231; experiment: Inhibition of colony formation in human MDA-MB-231 cells at […] incubated for 14 days drug medium changed for every 2 days by crystal violet staining based analysis; format: cell-based; conditions: dose 2.5 µM, time 14.0 day
[7] = target: T3, Histone-lysine N-methyltransferase EHMT2 (Homo sapiens, UniProt Q96KQ7); experiment: Inhibition of G9a (unknown origin) by AlphaLISA assay
T3 sequence (Q96KQ7 whole entry): T2 sequence (whole entry)

[8] = target: Histone-lysine N-methyltransferase EZH2 (Homo sapiens, UniProt Q15910); experiment: Inhibition of EZH2 (unknown origin)
[9] = target: T2, Histone-lysine N-methyltransferase EHMT2 (Homo sapiens); experiment: Covalent inhibition of recombinant G9a (unknown origin) assessed as adduct formation intensity by measuring mass after 12 hrs by mass spectrometric analysis
[10] = target: T1, Histone-lysine N-methyltransferase EHMT1 (Homo sapiens); experiment: Covalent inhibition of recombinant GLP (unknown origin) assessed as adduct formation intensity by measuring mass after 12 hrs by mass spectrometric analysis

Sequence of Histone-lysine N-methyltransferase EZH2 (Q15910 whole entry): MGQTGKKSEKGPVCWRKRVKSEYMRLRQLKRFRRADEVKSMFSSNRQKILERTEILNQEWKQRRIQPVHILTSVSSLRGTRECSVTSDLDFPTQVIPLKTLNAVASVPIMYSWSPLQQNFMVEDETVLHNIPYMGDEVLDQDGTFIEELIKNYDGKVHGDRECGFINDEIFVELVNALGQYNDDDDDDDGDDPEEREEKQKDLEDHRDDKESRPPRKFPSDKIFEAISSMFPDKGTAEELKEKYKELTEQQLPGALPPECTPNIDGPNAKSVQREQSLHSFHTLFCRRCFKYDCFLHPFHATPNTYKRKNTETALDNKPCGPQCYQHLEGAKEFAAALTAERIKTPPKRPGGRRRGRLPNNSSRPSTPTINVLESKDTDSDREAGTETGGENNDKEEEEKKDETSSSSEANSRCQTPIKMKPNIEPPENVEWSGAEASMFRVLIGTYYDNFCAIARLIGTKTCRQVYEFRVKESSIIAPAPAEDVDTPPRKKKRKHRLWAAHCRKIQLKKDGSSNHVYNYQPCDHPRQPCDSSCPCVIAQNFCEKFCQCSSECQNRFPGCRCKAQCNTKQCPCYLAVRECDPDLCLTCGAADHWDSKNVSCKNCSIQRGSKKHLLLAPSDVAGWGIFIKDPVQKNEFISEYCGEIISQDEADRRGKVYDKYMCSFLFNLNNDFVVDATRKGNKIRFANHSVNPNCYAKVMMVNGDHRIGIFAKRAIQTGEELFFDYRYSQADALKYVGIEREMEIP

inhibition [2]: Tde | inhibition [3]: Tde | Cmax [4]: 316 ng/mL | MRT [5]: 36.6 min | IC50 [7]: 8.5 nM | IC50 [8]: > 20000 nM | Activity [9]: 60700 Da | Activity [10]: 53800 Da
Compound: C=CC(=O)N(C)c1nc(NC2CCN(C)CC2)c2cc(OC)c(OCCCN3CCCC3)cc2n1
inhibition [1]: Active | inhibition [6]: Active
